From ChEMBL document CHEMBL1149203, “Design, synthesis, and characterization of an ATP-peptide conjugate inhibitor of protein kinase A” (Bioorg Med Chem Lett, 2004)

Biological target: cAMP-dependent protein kinase (PKA) (Homo sapiens, UniProt P22694+P17612+P22612)
Test: Inhibition of protein kinase A expressed in Escherichia coli

Work on `CC(=O)N[C@@H](CC(C)C)C(=O)N[C@@H](CCCN=C(N)N)C(=O)N[C@@H](CCCN=C(N)N)C(=O)N[C@@H](C)C(=O)NC(CNC(=O)CSP(=O)(O)OP(=O)(O)OP(=O)(O)OC[C@H]1O[C@@H](n2cnc3c(N)ncnc32)[C@H](O)[C@@H]1O)C(=O)N[C@@H](CC(C)C)C(=O)NCC(=O)O` (stereo partly specified) yielded a Ki of 3.8 µM.
